Common to all, as to format: biochemical
For assay [1], the system named is GPI-PLC, rat adipocyte plasma membrane/DIGs. The assay can be described thus: Inhibition of adipocyte GPI-PLC (plasma membranes, lcDIGs or hcDIGs), substrate AChE.
For the next assay, the target named is T1, bovine AChE (Bos taurus, UniProt P23795).
T1 construct: solubilized and partially purified bovine erythrocyte AChE; from tissue; host or cells: bovine erythrocytes
Briefly: AChE activity. The conditions noted are these: 50 μM. The procedure: Electroporation was performed as described in “Müller, G. et al., (2000) Mol. Cell. Biol. 20: 4708-4723”. Lipolysis was determined as release of glycerol or fluorescent NBD-FA from prelabeled and isoproterenol-stimulated adipocytes as described in “Müller, G. et al., (2003) Biochimie 85: 1245-1256”. Gce1 was detected by photolabeling of solubilized plasma membranes or hc/lcDIGs (10-50 μg protein) with 8-N3—[^32P]cAMP and subsequent phosphorimaging as described in “Müller, G. et al., (1994) Biochemistry 33: 12149-12159”. 5′-Nuc, aP and AChE activities were measured according to “Eliakim, R. et al., (1990) Biochim. Biophys. Acta 1355: 293-302”. Protein was determined using the BCA protein determination kit from Pierce (Rockford, Ill.) and BSA as calibration standard. SDS-PAGE was performed using precast gels (Novex, San Diego, Calif.; 10% Bis-Tris resolving gel, morpholinopropanesulfonic acid-SDS running buffer). Lumiimages were evaluated on a LumiImager using LumiImager software (Roche Diagnostics). Phosphor- and fluorescence images were processed and quantified using the Storm 860 PhosphorImager system (Molecular Dynamics, Gelsenkirchen, Germany). Figures were constructed using the ADOBE PHOTOSHOP software (Adobe Systems, Mountain View, Calif.).
FIG. 3: Selectivity of GPI-2350. […]

Assay [2] has as its target PI-PLC, Bacillus cereus (recombinant) (Bacillus cereus, UniProt P14262). The assay can be described thus: Inhibition of PI-PLC (B. cereus), cleavage of GPI-protein, TX-114 partitioning. The source says: Human recombinant insulin, PIG41 (disclosed in “Frick, W. et al., (1998) Biochemistry 37, 13421-13436”) and glimepiride (trade name Amaryl) were supplied by the medicinal chemistry and synthesis departments of Aventis Pharma Germany (Frankfurt, Germany). 12-((7-nitrobenz-2-oxa-1,3-diazol-4-yl)amino)dodecanoic acid (NBD-FA) was synthesized as described in Müller et al., (1997) Biochem. Biophys. Acta 1347: 23-39. Collagenase (Worthington, CLS, type I, 250 units/mg) was provided by Biochrom (Berlin, Germany). Lipoprotein lipase (LPL, affinity-purified) from bovine milk, phospholipase A2 (honey bee venom), crude porcine pancreatic lipase (PL), recombinant PC- and PI-PLC (Bacillus cereus), crude PLD (cabbage) and defatted BSA (fraction V) were delivered by SigmalAldrich (Deisenhofen, Germany), crude PI-PLC (rat liver) and proteinase inhibitors were purchased from Roche Molecular Biochemicals (Mannheim, Germany). Recombinant GPI-PLC (Trypanosoma brucei) was obtained from Oxford Glycosystems (Oxford, UK). Inhibitors of PLA2 (AACOCF3) and PLC (U 73122) were from Tocris (Avonmouth, UK). Bisbodipy-C11-PC was bought from Molecular Probes (Eugene, Oreg.). Lipids were purchased from Avanti Polar Lipids (Birmingham, Ala.). […]

T1 sequence (P23795 31-614 isoform P23795-2 limits assumed): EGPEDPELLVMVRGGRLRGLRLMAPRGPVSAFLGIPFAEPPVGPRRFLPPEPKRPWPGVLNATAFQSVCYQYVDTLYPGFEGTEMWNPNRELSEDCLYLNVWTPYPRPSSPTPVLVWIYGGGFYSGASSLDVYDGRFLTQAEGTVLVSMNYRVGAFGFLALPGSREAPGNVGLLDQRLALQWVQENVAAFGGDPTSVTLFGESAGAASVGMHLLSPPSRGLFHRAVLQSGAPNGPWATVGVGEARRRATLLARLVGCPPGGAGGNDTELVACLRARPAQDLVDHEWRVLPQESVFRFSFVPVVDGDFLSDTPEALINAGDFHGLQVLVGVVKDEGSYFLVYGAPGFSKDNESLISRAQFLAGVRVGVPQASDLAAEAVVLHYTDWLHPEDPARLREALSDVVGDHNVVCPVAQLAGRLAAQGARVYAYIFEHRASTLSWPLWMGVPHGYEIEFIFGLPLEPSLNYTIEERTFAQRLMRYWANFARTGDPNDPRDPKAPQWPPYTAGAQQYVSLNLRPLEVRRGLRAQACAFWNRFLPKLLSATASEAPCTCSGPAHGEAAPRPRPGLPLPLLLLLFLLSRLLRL
PI-PLC, Bacillus cereus (recombinant), sequence (P14262 32-329 limits assumed): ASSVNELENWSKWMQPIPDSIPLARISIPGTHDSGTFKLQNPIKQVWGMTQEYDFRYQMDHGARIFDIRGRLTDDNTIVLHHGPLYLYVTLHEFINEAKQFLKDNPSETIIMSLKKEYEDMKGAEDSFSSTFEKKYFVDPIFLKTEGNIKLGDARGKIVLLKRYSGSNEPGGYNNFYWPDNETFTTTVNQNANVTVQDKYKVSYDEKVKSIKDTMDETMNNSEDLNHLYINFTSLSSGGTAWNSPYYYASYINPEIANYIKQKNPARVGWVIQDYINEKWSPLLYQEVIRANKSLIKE

Consider `CCCCCCCCCCCCP1(=O)O[C@@H]2[C@H](O)[C@@H](O)[C@H](O)[C@@H](O)[C@@H]2O1` (stereo partly drawn) [GPI-2350, myo-inositol-1,2-cyclo-dodecylphosphonic acid], for which the inhibition in words result in assay [1] and in assay [2] was “potent inhibitor” each time. Further, on bovine AChE, the “effect on AChE” value was “not significantly affected”.

The values above are taken from patent US8017350B2, “Glimepiride- and insulin-induced glycosylphosphatidylinositol-specific phospholipase C regulation” (Sanofi-Aventis Deutschland GmbH, priority 2004, dated 2011).
